The species named for one experiment is Homo sapiens. The experiment can be described thus: Angiogenic activity in HUVEC12 assessed as induction of cell proliferation at 10 uM after 24 hrs by MTT assay. The format is functional.
The next experiment deals with Chorioallantoic membrane. The experiment can be described thus: Angiogenic activity in chick embryo chorioallantoic membrane at 10 uL/egg after 2 days. The note with it: Gallus gallus. The format is functional, tissue-based.

Calls of active or inactive are those of the source. The rule behind the calls is not given here.

The record followed here is ChEMBL document CHEMBL1152705, “Synthesis and promotion angiogenesis effect of chrysin derivatives coupled to NO donors” (Bioorg Med Chem Lett, 2009).

As to `O=c1cc(-c2ccccc2)oc2cc(O)cc(O)c12`, the result in the experiment listed under Homo sapiens was Active.
In the case of `O=c1cc(-c2ccccc2)oc2cc(OCCO[N+](=O)[O-])cc(O)c12`, the outcome in the experiment filed under Homo sapiens and with Chorioallantoic membrane was Active.
For the molecule `O=c1cc(-c2ccccc2)oc2cc(OCCCCCCO[N+](=O)[O-])cc(O)c12`, the outcome in the experiment listed under Homo sapiens and with Chorioallantoic membrane was Active.
For the molecule `O=c1cc(-c2ccccc2)oc2cc(OCCCCO[N+](=O)[O-])cc(O)c12`, the outcome in the experiment filed under Homo sapiens and with Chorioallantoic membrane was Active.
